The target of the experiment is T1, histamine-3 receptor (Rattus norvegicus, UniProt Q9QYN8).
T1 construct: from tissue; host or cells: male Sprague-Dawley rat brain cortex membranes
As to the kind of experiment: Histamine-3 receptor binding, (3H)-N-α-methylhistamine displacement in rat cortical membranes. As to conditions: male Sprague-Dawley rat brain cortical membranes; (3H)-N-α-methylhistamine ~0.6 nM; 30 minutes at 25° C.; Cheng-Prusoff. On the procedure: Briefly, male Sprague-Dawley rat brain cortices were homogenized (1 g tissue/10 mL buffer) in 50 mM Tris-HCl/5 mM EDTA containing protease inhibitor cocktail (Calbiochem) using a polytron set at 20,500 rpm. Homogenates were centrifuged for 20 minutes at 40,000×g. The supernatant was decanted, and pellets were weighed. The pellet was resuspended by polytron homogenization in 40 mL 50 mM Tris-HCl/5 mM EDTA with protease inhibitors and centrifuged for 20 minutes at 40,000×g. […] Test compounds were dissolved in DMSO to provide 20 mM solution, serially diluted and then added to the incubation mixtures prior to initiating the incubation assay by addition of the membranes. Thioperamide (3 μM) was used to determine nonspecific binding. Binding incubations were conducted for 30 minutes at 25° C. and terminated by addition of 2 mL of ice cold 50 mM Tris-HCl (pH 7.7) and filtration through 0.3% polyethylenimine-soaked Unifilter plates (Packard). These filters were washed 4 additional times with 2 mL of ice-cold 50 mM Tris-HCl and dried for 1 hour. Radioactivity was determined using liquid scintillation counting techniques. Results were analyzed by Hill transformation and Ki values were determined using the Cheng-Prusoff equation.

The results in this text go back to patent US6620839B2, “1,3-disubstituted and 1,3,3-trisubstituted pyrrolidines as histamine-3 receptor ligands and their therapeutic applications” (Abbott Laboratories, priority 2000, dated 2003).

Structures are written as SMILES.

T1 sequence (Q9QYN8 whole entry): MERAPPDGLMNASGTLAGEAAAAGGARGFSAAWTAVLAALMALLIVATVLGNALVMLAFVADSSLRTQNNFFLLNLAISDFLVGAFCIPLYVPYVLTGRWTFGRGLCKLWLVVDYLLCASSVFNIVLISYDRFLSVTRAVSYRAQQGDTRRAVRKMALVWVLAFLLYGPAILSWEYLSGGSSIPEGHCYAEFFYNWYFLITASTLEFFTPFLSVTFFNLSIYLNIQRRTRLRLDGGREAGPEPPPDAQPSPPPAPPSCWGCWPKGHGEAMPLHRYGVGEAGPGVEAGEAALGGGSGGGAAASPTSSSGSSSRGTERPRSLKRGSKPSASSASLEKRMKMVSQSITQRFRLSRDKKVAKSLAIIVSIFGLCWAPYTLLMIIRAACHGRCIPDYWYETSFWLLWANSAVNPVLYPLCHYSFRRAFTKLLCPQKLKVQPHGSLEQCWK

By Ki is commonly meant a measure of affinity in units of concentration, obtained from inhibition or displacement. The low end stands for tighter binding, the high end for weaker binding. As for `CS(=O)(=O)c1ccc(S(=O)(=O)N[C@@H]2CCN(CCCOc3ccc(-c4ccc(C#N)cc4)cc3)C2)cc1` [Example 146], the Ki worked out at 0.003 µM.

As to `CCC(C)(C)OC(=O)N[C@@H]1CCN(CCCOc2ccc(-c3ccc(C#N)cc3)cc2)C1` [Example 134, tert-pentyl (3R)-1-{3-[(4′-cyano[1,1′-biphenyl]-4-yl)oxy]propyl}pyrrolidinylcarbamate], the Ki was determined as 0.168 µM.

`COC(=O)N[C@@H]1CCN(CCCOc2ccc(-c3ccc(C#N)cc3)cc2)C1` [Example 133, methyl (3R)-1-{3-[(4′-cyano[1,1′-biphenyl]-4-yl)oxy]propyl}pyrrolidinylcarbamate] registered a Ki of 0.057 µM. With `N#Cc1ccc(-c2ccc(OCCCN3CC[C@@H](NC(=O)N4CCCC4)C3)cc2)cc1` [Example 136], the Ki came out at 0.215 µM. `N#Cc1ccc(-c2ccc(OCCCN3CC[C@@H](NS(=O)(=O)c4ccc(F)c(Cl)c4)C3)cc2)cc1` [Example 26, 3-chloro-N-((3R)-1-{3-[(4′-cyano[1,1′-biphenyl]-4-yl)oxy]propyl}pyrrolidinyl)-4-fluorobenzenesulfonamide] showed a Ki of 0.057 µM. The compound `CC(=O)c1ccc(OCCCN2CC[C@@H](N3C(=O)N[C@H](C(C)C)C3=O)C2)cc1` [Example 10, (5R)-3-{(3R)-1-[3-(4-acetylphenoxy)propyl]pyrrolidinyl}-5-isopropyl-2,4-imidazolidinedione] returned a Ki of 0.626 µM.

On to `N#Cc1ccc(-c2ccc(OCCCN3CC[C@@H](NS(=O)(=O)c4ccc(Cl)c(Cl)c4)C3)cc2)cc1` [Example 54, 3,4-dichloro-N-((3R)-1-{3-[(4′-cyano[1,1′-biphenyl]-4-yl)oxy]propyl}pyrrolidinyl)benzenesulfonamide], for which the affinity corresponds to a Ki of 0.098 µM. The compound `O=C(c1ccc(OCCCN2CC[C@@H](NS(=O)(=O)c3ccccc3)C2)cc1)C1CC1` [Example 55, N-((3R)-1-{3-[4-(cyclopropylcarbonyl)phenoxy]propyl}pyrrolidinyl)benzenesulfonamide] showed a Ki of 0.0029 µM. The compound `CN([C@@H]1CCN(CCCOc2ccc(-c3ccc(C#N)cc3)cc2)C1)S(=O)(=O)c1cccc(F)c1` [Example 125] returned a Ki of 0.0074 µM. Turning to `CC(=O)Nc1ccc(S(=O)(=O)N[C@@H]2CCN(CCCOc3ccc(-c4ccccn4)cc3)C2)cc1Cl` [Example 107], the Ki is 0.2 µM. For the compound `Cc1c(S(=O)(=O)N[C@@H]2CCN(CCCOc3ccc(-c4ccc(C#N)cc4)cc3)C2)sc2ccc(Cl)cc12` [Example 37, 5-chloro-N-((3R)-1-{3-[(4′-cyano[1,1′-biphenyl]-4-yl)oxy]propyl}pyrrolidinyl)-3-methyl-1-benzothiophene-2-sulfonamide], the Ki turned out to be 0.349 µM. Take `CCCCOc1ccc(S(=O)(=O)N[C@@H]2CCN(CCCOc3ccc(C(=O)C4CC4)cc3)C2)cc1` [Example 85, 4-butoxy-N-((3R)-1-{3-[4-(cyclopropylcarbonyl)phenoxy]propyl}pyrrolidinyl)benzenesulfonamide]: the Ki was 0.0053 µM. Take `COc1ccc(S(=O)(=O)N[C@@H]2CCN(CCCOc3ccc(-c4ccccn4)cc3)C2)cc1` [Example 101, 4-methoxy-N-((3R)-1-{3-[4-(2-pyridinyl)phenoxy]propyl}pyrrolidinyl)benzenesulfonamide]: the Ki was found to be 0.179 µM.

Consider `CN(C)[C@@H]1CCN(CCCOc2c(F)cc(-c3ccc(C#N)cc3)cc2Cl)C1` [Example 174, 3′-chloro-4′-{3-[(3R)-3-(dimethylamino)-1-pyrrolidinyl]propoxy}-5′-fluoro-1,1′-biphenyl-4-carbonitrile], for which the Ki came out at 0.014 µM. On to `N#Cc1cccc(S(=O)(=O)N[C@@H]2CCN(CCCOc3ccc(C(=O)C4CC4)cc3)C2)c1` [Example 71, 3-cyano-N-((3R)-1-{3-[4-(cyclopropylcarbonyl)phenoxy]propyl}pyrrolidinyl)benzenesulfonamide], for which the Ki was determined as 0.0028 µM. With `CN(C(=O)N1CCOCC1)[C@@H]1CCN(CCCOc2ccc(-c3ccc(C#N)cc3)cc2)C1` [Example 118], the affinity, expressed as Ki, was 0.0057 µM.
